The record followed here is US10071086B2, “1H-pyrazolo[3,4-b]pyridines and therapeutic uses thereof” (Samumed, LLC, priority 2012, dated 2018).

Structures are written as SMILES.

Test [1] relates to β-catenin. The experiment in a line: NL-20 β-catenin reporter assay (primary screening assay for IPF). Conditions: transformed human bronchial epithelial cell line NL-20. In kind it is cell-based. An excerpt:
Compounds of Formulas (I) or (II) were screened in a β-catenin-based reporter assay in a transformed human bronchial epithelial cell line (NL-20).
(In general: Reporter assays use an easily measured gene product as a stand-in for the process of interest.)

Test [2] deals with Wnt pathway. The experiment in a line: Wnt activity reporter assay (SP5 promoter-luciferase in SW480 cells). The format is cell-based. Conditions: Homo sapiens, SP5 promoter firefly luciferase reporter, read-out: Wnt inhibition. The essentials: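 SW480 cells stably carrying an SP5 promoter (eight TCF/LEF sites)-firefly luciferase reporter were seeded at ~10,000 per well and given half-log compound dilutions from a 10 µM top concentration.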

In the case of `Nc1cncc(-c2cnc3[nH]nc(-c4nc5c(-c6cccc(F)c6)cncc5[nH]4)c3c2)c1` [Compound 5, 5-(3-(7-(3-Fluorophenyl)-3H-imidazo[4,5-c]pyridin-2-yl)-1H-pyrazolo[3,4-b]pyridin-5-yl)pyridin-3-amine], the IC50 in test [1] (NL20) was 0.175 µM; in test [2], 0.0039 µM.

With `Nc1cncc(-c2cnc3[nH]nc(-c4nc5c(-c6ccncc6)cccc5[nH]4)c3c2)c1` [Compound 635, 5-(3-(4-(Pyridin-4-yl)-1H-benzo[d]imidazol-2-yl)-1H-pyrazolo[3,4-b]pyridin-5-yl)pyridin-3-amine], the IC50 in test [2] is 0.034 µM.

In the case of `Cc1ccncc1-c1cnc2[nH]nc(-c3nc4c(-c5ccncc5)cccc4[nH]3)c2c1` [Compound 637, 5-(4-Methylpyridin-3-yl)-3-(4-(pyridin-4-yl)-1H-benzo[d]imidazol-2-yl)-1H-pyrazolo[3,4-b]pyridine], the IC50 in test [2] came out at 0.11 µM.

For `CC(C)Nc1cncc(-c2cnc3[nH]nc(-c4nc5c(-c6ccncc6)cccc5[nH]4)c3c2)c1` [Compound 643, N-Isopropyl-5-(3-(4-(pyridin-4-yl)-1H-benzo[d]imidazol-2-yl)-1H-pyrazolo[3,4-b]pyridin-5-yl)pyridin-3-amine], the IC50 in test [2] is 0.03 µM.

Consider `CC(C)(C)CC(=O)Nc1cncc(-c2cnc3[nH]nc(-c4nc5c(-c6ccncc6)cccc5[nH]4)c3c2)c1` [Compound 647, 3,3-Dimethyl-N-(5-(3-(4-(pyridin-4-yl)-1H-benzo[d]imidazol-2-yl)-1H-pyrazolo[3,4-b]pyridin-5-yl)pyridin-3-yl)butanamide], for which the IC50 in test [2] is 1.52 µM.

In the case of `c1ccc(CNCc2cncc(-c3cnc4[nH]nc(-c5nc6c(-c7ccncc7)cccc6[nH]5)c4c3)c2)cc1` [Compound 654, N-Benzyl-1-(5-(3-(4-(pyridin-4-yl)-1H-benzo[d]imidazol-2-yl)-1H-pyrazolo[3,4-b]pyridin-5-yl)pyridin-3-yl)methanamine], in test [2], the IC50 came to 1.5 µM.

As to `FC1(F)CCN(Cc2cncc(-c3cnc4[nH]nc(-c5nc6c(-c7ccccn7)cccc6[nH]5)c4c3)c2)C1` [Compound 680, 5-(5-((3,3-Difluoropyrrolidin-1-yl)methyl)pyridin-3-yl)-3-(4-(pyridin-2-yl)-1H-benzo[d]imidazol-2-yl)-1H-pyrazolo[3,4-b]pyridine], the IC50 in test [2] is 0.17 µM.

As to `O=C(Nc1cncc(-c2cnc3[nH]nc(-c4nc5c(N6CCCCC6)cccc5[nH]4)c3c2)c1)c1ccccc1` [Compound 691, N-(5-(3-(4-(Piperidin-1-yl)-1H-benzo[d]imidazol-2-yl)-1H-pyrazolo[3,4-b]pyridin-5-yl)pyridin-3-yl)benzamide], in test [2], the IC50 is 0.187 µM.

Regarding `CCCCC(=O)Nc1cncc(-c2cnc3[nH]nc(-c4nc5c(N6CCCCC6)cccc5[nH]4)c3c2)c1` [Compound 698, N-(5-(3-(4-(Piperidin-1-yl)-1H-benzo[d]imidazol-2-yl)-1H-pyrazolo[3,4-b]pyridin-5-yl)pyridin-3-yl)pentanamide], in test [2], the IC50 is 0.3 µM.

As to `O=C(Nc1cncc(-c2cnc3[nH]nc(-c4nc5c(N6CCCCC6)cccc5[nH]4)c3c2)c1)C1CCCC1` [Compound 701, N-(5-(3-(4-(Piperidin-1-yl)-1H-benzo[d]imidazol-2-yl)-1H-pyrazolo[3,4-b]pyridin-5-yl)pyridin-3-yl)cyclopentanecarboxamide], in test [2], the IC50 turned out to be 0.625 µM.

With `c1cc(N2CCCCC2)c2nc(-c3n[nH]c4ncc(-c5cncc(CNCC6CCCC6)c5)cc34)[nH]c2c1` [Compound 704, 1-Cyclopentyl-N-((5-(3-(4-(piperidin-1-yl)-1H-benzo[d]imidazol-2-yl)-1H-pyrazolo[3,4-b]pyridin-5-yl)pyridin-3-yl)methyl)methanamine], the IC50 in test [2] worked out at 0.81 µM.

Consider `Cc1cn(-c2cccc3[nH]c(-c4n[nH]c5ncc(-c6cncc(CN(C)C)c6)cc45)nc23)cn1` [Compound 719, N,N-Dimethyl-1-(5-(3-(4-(4-methyl-1H-imidazol-1-yl)-1H-benzo[d]imidazol-2-yl)-1H-pyrazolo[3,4-b]pyridin-5-yl)pyridin-3-yl)methanamine], for which the IC50 in test [2] worked out at 0.2 µM.

`Cc1cn(-c2cccc3[nH]c(-c4n[nH]c5ncc(-c6cncc(NC(=O)C7CCCCC7)c6)cc45)nc23)cn1` [Compound 728, N-(5-(3-(4-(4-Methyl-1H-imidazol-1-yl)-1H-benzo[d]imidazol-2-yl)-1H-pyrazolo[3,4-b]pyridin-5-yl)pyridin-3-yl)cyclohexanecarboxamide]: in test [2], the IC50 worked out at 0.039 µM.

In the case of `CCNCc1cncc(-c2cnc3[nH]nc(-c4nc5c(N6CCN(C)CC6)cccc5[nH]4)c3c2)c1` [Compound 738, N-((5-(3-(4-(4-Methylpiperazin-1-yl)-1H-benzo[d]imidazol-2-yl)-1H-pyrazolo[3,4-b]pyridin-5-yl)pyridin-3-yl)methyl)ethanamine], the IC50 in test [2] came to 0.55 µM.

With `CN1CCN(c2cccc3[nH]c(-c4n[nH]c5ncc(-c6cncc(NC(=O)C7CCC7)c6)cc45)nc23)CC1` [Compound 752, N-(5-(3-(4-(4-Methylpiperazin-1-yl)-1H-benzo[d]imidazol-2-yl)-1H-pyrazolo[3,4-b]pyridin-5-yl)pyridin-3-yl)cyclobutanecarboxamide], the IC50 in test [2] turned out to be 0.226 µM.

Regarding `CN1CCN(c2cccc3[nH]c(-c4n[nH]c5ncc(-c6cncc(CN7CCC(F)(F)C7)c6)cc45)nc23)CC1` [Compound 758, 5-(5-((3,3-Difluoropyrrolidin-1-yl)methyl)pyridin-3-yl)-3-(4-(4-methylpiperazin-1-yl)-1H-benzo[d]imidazol-2-yl)-1H-pyrazolo[3,4-b]pyridine], in test [2], the IC50 was determined as 0.048 µM.

Turning to `Nc1cncc(-c2cnc3[nH]nc(-c4nc5ccccc5[nH]4)c3c2)c1` [Compound 761, 5-(3-(1H-Benzo[d]imidazol-2-yl)-1H-pyrazolo[3,4-b]pyridin-5-yl)pyridin-3-amine], the IC50 in test [2] came out at 0.32 µM.

For the compound `CN(C)c1cncc(-c2cnc3[nH]nc(-c4nc5ccccc5[nH]4)c3c2)c1` [Compound 765, 5-(3-(1H-Benzo[d]imidazol-2-yl)-1H-pyrazolo[3,4-b]pyridin-5-yl)-N,N-dimethylpyridin-3-amine], the IC50 in test [2] was 0.027 µM.

For the compound `CC(C)(C)CC(=O)Nc1cncc(-c2cnc3[nH]nc(-c4nc5ccccc5[nH]4)c3c2)c1` [Compound 774, N-(5-(3-(1H-Benzo[d]imidazol-2-yl)-1H-pyrazolo[3,4-b]pyridin-5-yl)pyridin-3-yl)-3,3-dimethylbutanamide], the IC50 in test [2] is 0.2 µM.

For `c1ccc(CNCc2cncc(-c3cnc4[nH]nc(-c5nc6ccccc6[nH]5)c4c3)c2)cc1` [Compound 781, 1-(5-(3-(1H-Benzo[d]imidazol-2-yl)-1H-pyrazolo[3,4-b]pyridin-5-yl)pyridin-3-yl)-N-benzylmethanamine], the IC50 in test [2] worked out at 1.44 µM.

As to `CCC(=O)Nc1cncc(-c2cnc3[nH]nc(-c4nc5c(-c6ccsc6)cccc5[nH]4)c3c2)c1` [Compound 785, N-(5-(3-(4-(Thiophen-3-yl)-1H-benzo[d]imidazol-2-yl)-1H-pyrazolo[3,4-b]pyridin-5-yl)pyridin-3-yl)propionamide], the IC50 in test [2] was 0.01 µM.

On to `CC(C)C(=O)Nc1cncc(-c2cnc3[nH]nc(-c4nc5c(-c6ccsc6)cccc5[nH]4)c3c2)c1` [Compound 793, N-(5-(3-(4-(Thiophen-3-yl)-1H-benzo[d]imidazol-2-yl)-1H-pyrazolo[3,4-b]pyridin-5-yl)pyridin-3-yl)isobutyramide], for which the IC50 in test [2] was 0.016 µM.

As for `CN(C)Cc1cncc(-c2cnc3[nH]nc(-c4nc5c(-c6ccsc6)cccc5[nH]4)c3c2)c1` [Compound 797, N,N-Dimethyl-1-(5-(3-(4-(thiophen-3-yl)-1H-benzo[d]imidazol-2-yl)-1H-pyrazolo[3,4-b]pyridin-5-yl)pyridin-3-yl)methanamine], in test [2], the IC50 was determined as 0.032 µM.

On to `c1cc(-c2ccsc2)c2nc(-c3n[nH]c4ncc(-c5cncc(CN6CCCCC6)c5)cc34)[nH]c2c1` [Compound 799, 5-(5-(Piperidin-1-ylmethyl)pyridin-3-yl)-3-(4-(thiophen-3-yl)-1H-benzo[d]imidazol-2-yl)-1H-pyrazolo[3,4-b]pyridine], for which the IC50 in test [2] turned out to be 0.082 µM.

Regarding `O=C(Nc1cncc(-c2cnc3[nH]nc(-c4nc5c(-c6ccsc6)cccc5[nH]4)c3c2)c1)C1CC1` [Compound 803, N-(5-(3-(4-(Thiophen-3-yl)-1H-benzo[d]imidazol-2-yl)-1H-pyrazolo[3,4-b]pyridin-5-yl)pyridin-3-yl)cyclopropanecarboxamide], the IC50 in test [2] was 0.017 µM.

As to `CC(C)(C)C(=O)Nc1cncc(-c2cnc3[nH]nc(-c4nc5c(-c6ccoc6)cccc5[nH]4)c3c2)c1` [Compound 818, N-(5-(3-(4-(Furan-3-yl)-1H-benzo[d]imidazol-2-yl)-1H-pyrazolo[3,4-b]pyridin-5-yl)pyridin-3-yl)pivalamide], the IC50 in test [2] was found to be 0.05 µM.

`CCCC(=O)Nc1cncc(-c2cnc3[nH]nc(-c4nc5c(-c6ccoc6)cccc5[nH]4)c3c2)c1` [Compound 827, N-(5-(3-(4-(Furan-3-yl)-1H-benzo[d]imidazol-2-yl)-1H-pyrazolo[3,4-b]pyridin-5-yl)pyridin-3-yl)butyramide]: the IC50 in test [2] was found to be 0.063 µM.

On to `c1cncc(-c2cnc3[nH]nc(-c4nc5c(-c6cccs6)cccc5[nH]4)c3c2)c1` [Compound 888, 5-(Pyridin-3-yl)-3-(4-(thiophen-2-yl)-1H-benzo[d]imidazol-2-yl)-1H-pyrazolo[3,4-b]pyridine], for which the IC50 in test [2] came to 0.012 µM.

Consider `c1csc(-c2cccc3[nH]c(-c4n[nH]c5ncc(-c6cncc(CN7CCCC7)c6)cc45)nc23)c1` [Compound 898, 5-(5-(Pyrrolidin-1-ylmethyl)pyridin-3-yl)-3-(4-(thiophen-2-yl)-1H-benzo[d]imidazol-2-yl)-1H-pyrazolo[3,4-b]pyridine], for which, in test [2], the IC50 was determined as 0.12 µM.

`O=C1C(Cc2ccc(O)cc2)N2C(=O)CCN(C(=O)NCc3ccccc3)C2CN1Cc1cccc2ccccc12` (stereo not shown) [ICG-001, reference compound] had an IC50 in test [1] of 7 µM.
